{
  "source": "paper PMC5382548",
  "about": "(Scientific Reports, 2015)",
  "key": {"F21T G4": {"system": "F21T G4", "assay": "FRET melting competition assay, labelled F21T", "type": "binding, human", "settings": "ligand 1 μM, labelled F21T 0.2 μM", "method": "(§1) To assess selectivity of the IQc compounds 2d and 3e to different DNA sequences, we performed competitive FRET experiments with 0.2 μM of labelled KRAS21R and F21T G4 and increasing concentrations of two non-fluorescent competitors, 26mer ds-DNA or the human telomeric sequence (HT21). A decrease in ΔTm indicates the displacement of the ligand from labelled G4 by the competitor DNA.\n(§2) Figure 3 FRET melting competition assay data for (a) 2d and (b) 3e (1 μM) in complex with KRAS21R and F21T G4s (0.2 μM), with increasing concentrations of non-labeled 26ds, HT21 or KRAS21R (0.4 to 25 μM) competitor, in K-cacodylate buffer (pH 7.4, 60 mM K^+).\n(§3) Oligonucleotide sequences were purchased from Eurofins MWG Synthesis GmbH, Germany or STAB VIDA Genomics Lab, Caparica, Lisbon, Portugal. The labelled oligonucleotides used in the FRET assays had attached the donor fluorophore FAM (6-carboxyfluorescein) and the acceptor fluorophore TAMRA (6-carboxytetramethylrhodamine): KRAS21R: 5′-FAM-[…]-TAMRA-3′; KRAS32R: 5′-FAM-[…]-TAMRA-3′; UTR-1: 5′-FAM-GCGGCGGCGGAGG-TAMRA-3′; UTR-2: 5′-FAM-[…]-TAMRA-3; T-Loop:5′-FAM-[…]-TAMRA-3′; F21T: 5′-FAM-[…]-TAMRA-3′. Non-labelled oligonucleotides were used in FRET competition assays and in the spectroscopic studies: ds26: - d(5′-CAATCGGATCGAATT CGATCCGATTG-3′); KRAS21R: 5′-[…]-3′; HT21: 5′-[…]-3′. […]"}, "KRAS21R G4": {"system": "KRAS21R G4", "assay": "FRET melting competition assay, labelled KRAS21R", "type": "binding, human", "settings": "ligand 1 μM, labelled KRAS21R 0.2 μM", "method": "as §1, §2, §3"}, "MiaPaCa2 (pancreatic)": {"system": "MiaPaCa2 (pancreatic)", "assay": "SRB short-term cytotoxicity assay, MiaPaCa2", "type": "cell-based", "settings": "Homo sapiens, MIA PaCa-2, 96 h", "method": "Short-term anti-proliferative assays were carried out by two different assays using a panel of human cancer and non-malignant human cell lines. […] The transformed human embryonic kidney cell line HEK293T (wt KRAS) was sensitive to all tested drugs, including TMPyP4, a cationic porphyrin established as a G4 ligand, as well as the anticancer drug 5-fluorouracil (5-FU).\nHuman cell lines, breast carcinoma (MCF7), lung carcinoma (A549), pancreatic cancer (MIA PaCa2, Panc-1), immortalised telomerase-negative human lung fibroblast (ALT) and normal human lung fibroblast (WI-38), were all purchased from American Type Cell Culture (ATCC). Cell lines were maintained in appropriate medium supplemented with 10% fetal bovine serum (Invitrogen, UK), 2 mM L-glutamine (Invitrogen, Netherlands), and other components as specified by the suppliers. All cell lines were maintained at 37°C, 5% CO2, and routinely passaged. Short-term growth inhibition was measured using the SRB assay as described previously[43] […]\nAfter electrophoretic transfer onto nitrocellulose membranes, immunoblots were blocked with 5% milk solution, and next incubated overnight at 4 °C with primary mouse monoclonal antibody reactive to KRAS/p53 (#sc-30/sc-126; Santa Cruz Biotechnology Inc., Santa Cruz, CA, USA). […] Steady-state protein levels were expressed as mean ±SEM from at least three independent experiments."}, "[1]": {"system": "KRAS mRNA in Panc-1 cells", "set-up": "method as in PMID 18490377", "settings": "12 or 24 hours, 50 μM; cited from earlier work"}},
  "data": [
    {"smiles": "CCN(CC)CCCNc1ccc2c(c1)[nH]c1c2c[n+](C)c2ccc(NCCCN(CC)CC)cc12.[Cl-]", "note": "[3e]", "values": [
      {"measurement": "Concentration of competitor KRAS21R reducing the induced thermal stability of F21T by 50%", "setting": "F21T G4", "value": 2, "unit": "µM"},
      {"measurement": "Concentration of HT21 required to displace ligand from its complex with KRAS21R", "setting": "KRAS21R G4", "value": "> 10", "unit": "µM"},
      {"measurement": "Fold higher concentration of HT21 required to displace ligand from its complex with KRAS21R", "setting": "KRAS21R G4", "value": "more than 50 fold"},
      {"measurement": "IC50", "setting": "MiaPaCa2 (pancreatic)", "value": 1.98, "unit": "µM"}
    ]},
    {"smiles": "C[n+]1ccc(-c2c3nc(c(-c4cc[n+](C)cc4)c4ccc([nH]4)c(-c4cc[n+](C)cc4)c4ccc([nH]4)c(-c4cc[n+](C)cc4)c4nc2C=C4)C=C3)cc1", "note": "[TMPyP4, reference compound]", "values": [
      {"measurement": "Decrease in KRAS mRNA levels", "setting": "[1]", "value": "~30", "unit": "%"}
    ]},
    {"smiles": "Cn1cc2c3ccccc3nc-2c2cc(Br)ccc21", "note": "[2a, 2-bromo-5-methyl-indolo[3,2-c]quinoline]", "values": [
      {"measurement": "IC50", "setting": "MiaPaCa2 (pancreatic)", "value": 2.2, "unit": "µM"}
    ]}
  ]
}
